Tests used:
Assay type in all cases: in vivo
[1] = test system: Puccinia recondita; test: Use Example 3: curative control of brown rust on wheat (PUCCRT K4); conditions: % diseased leaf area
Summary of the method: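 Wheat seedlings inoculated with Puccinia recondita spores, held 24 h at 95–99% RH, 20–24° C in dark, then 3 days in greenhouse before spraying to run-off (curative). Compound in acetone/DMSO–Wettol–water. After 5–7 further days at 20–24° C, 65–70% RH, % diseased leaf area scored visually.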

[2] = test system: Puccinia recondita; test: Use Example 4: preventative control of brown rust on wheat (PUCCRT P7); conditions: inoculated seven days after spraying, % diseased leaf area
Summary of the method: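 Preventative test: Puccinia recondita spores dusted onto wheat seedlings seven days after spraying their first two leaves to run-off with the formulated compound. After 24 h humid dark incubation at 20–24 °C and 9–11 days of greenhouse growth at 65–70% RH, infection rated visually as % diseased leaf area.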

[3] = test system: Phakopsora pachyrhizi containing the amino acid substitution F129L in the mitochondrial cytochrome b protein; test: Use Example 1: protective control of soybean rust on soybeans (PHAKPA P2); conditions: inoculated 2 days after spraying, % diseased leaf area
Summary of the method: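 Protective test: plants were inoculated with the F129L cytochrome b rust strain 2 days after spraying to run-off, then held 24 h humid (~95% RH, 20-24° C) and up to 14 days at 23-27° C, 60-80% RH. Readout was visually assessed percent diseased leaf area.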

[4] = test system: Phakopsora pachyrhizi containing the amino acid substitution F129L in the mitochondrial cytochrome b protein; test: Use Example 2: protective control of soybean rust on soybeans (PHAKPA P6); conditions: inoculated six days after spraying, % diseased leaf area
Summary of the method: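 Disease was rated visually as % diseased leaf area up to 14 days after inoculation (23–27°C, 60–80% RH). Inoculum was P. pachyrhizi carrying cytochrome b F129L, followed by 24 h in a humid chamber (~95% RH). Inoculation came six days after protective spraying of seedlings with compound in acetone/DMSO–Wettol–water.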

Compound: CNC(=O)/C(=N/OC)c1cccc(Cl)c1CO/N=C(\COC)c1cc(F)c(F)c(F)c1 [compound 74]
- % PUCCRT Disease level K4 at 4 ppm [1]: 37%
- % PUCCRT Disease level K4 at 16 ppm [1]: 3%
- % PUCCRT Disease level P7 at 4 ppm [2]: 12%
- % PUCCRT Disease level P7 at 16 ppm [2]: 3%
- % PHAKPA (F129L) Disease level P2 at 4 ppm [3]: 12%
- % PHAKPA (F129L) Disease level P2 at 16 ppm [3]: 2%
- % PHAKPA (F129L) Disease level P6 at 4 ppm [4]: 1%
- % PHAKPA (F129L) Disease level P6 at 16 ppm [4]: 0%

Compound: CO/C=C(/C(=O)OC)c1cccc(Cl)c1CO/N=C(\COC)c1cccc(Cl)c1F [compound 76]
- % PUCCRT Disease level K4 at 4 ppm [1]: 41%
- % PUCCRT Disease level K4 at 16 ppm [1]: 2%
- % PUCCRT Disease level P7 at 4 ppm [2]: 35%
- % PUCCRT Disease level P7 at 16 ppm [2]: 3%
- % PHAKPA (F129L) Disease level P2 at 4 ppm [3]: 10%
- % PHAKPA (F129L) Disease level P2 at 16 ppm [3]: 1%
- % PHAKPA (F129L) Disease level P6 at 4 ppm [4]: 0%
- % PHAKPA (F129L) Disease level P6 at 16 ppm [4]: 0%

Compound: CO/C=C(/C(=O)OC)c1cccc(Cl)c1CO/N=C(\COC)c1cc(F)cc(F)c1 [compound 80]
- % PUCCRT Disease level K4 at 4 ppm [1]: 30%
- % PUCCRT Disease level K4 at 16 ppm [1]: 0%
- % PUCCRT Disease level P7 at 4 ppm [2]: 5%
- % PUCCRT Disease level P7 at 16 ppm [2]: 3%
- % PHAKPA (F129L) Disease level P2 at 4 ppm [3]: 5%
- % PHAKPA (F129L) Disease level P2 at 16 ppm [3]: 0%
- % PHAKPA (F129L) Disease level P6 at 4 ppm [4]: 0%
- % PHAKPA (F129L) Disease level P6 at 16 ppm [4]: 0%

Compound: COC/C(=N\OCc1c(Cl)cccc1/C(=N\OC)C(=O)OC)c1c(F)cccc1F [compound 83]
- % PUCCRT Disease level K4 at 4 ppm [1]: 37%
- % PUCCRT Disease level K4 at 16 ppm [1]: 18%
- % PUCCRT Disease level P7 at 4 ppm [2]: 32%
- % PUCCRT Disease level P7 at 16 ppm [2]: 12%
- % PHAKPA (F129L) Disease level P2 at 4 ppm [3]: 2%
- % PHAKPA (F129L) Disease level P2 at 16 ppm [3]: 0%
- % PHAKPA (F129L) Disease level P6 at 4 ppm [4]: 0%
- % PHAKPA (F129L) Disease level P6 at 16 ppm [4]: 0%

Compound: CNC(=O)/C(=N/OC)c1cccc(Cl)c1CO/N=C(\COC)c1ccc(F)cc1F [compound 84]
- % PUCCRT Disease level K4 at 4 ppm [1]: 58%
- % PUCCRT Disease level K4 at 16 ppm [1]: 9%
- % PUCCRT Disease level P7 at 4 ppm [2]: 35%
- % PUCCRT Disease level P7 at 16 ppm [2]: 5%
- % PHAKPA (F129L) Disease level P2 at 4 ppm [3]: 5%
- % PHAKPA (F129L) Disease level P2 at 16 ppm [3]: 0%
- % PHAKPA (F129L) Disease level P6 at 4 ppm [4]: 2%
- % PHAKPA (F129L) Disease level P6 at 16 ppm [4]: 0%

Compound: CNC(=O)/C(=N/OC)c1cccc(Cl)c1CO/N=C(\COC)c1cc(F)cc(F)c1 [compound 86]
- % PUCCRT Disease level K4 at 4 ppm [1]: 52%
- % PUCCRT Disease level K4 at 16 ppm [1]: 4%
- % PUCCRT Disease level P7 at 4 ppm [2]: 19%
- % PUCCRT Disease level P7 at 16 ppm [2]: 4%
- % PHAKPA (F129L) Disease level P2 at 4 ppm [3]: 17%
- % PHAKPA (F129L) Disease level P2 at 16 ppm [3]: 0%
- % PHAKPA (F129L) Disease level P6 at 4 ppm [4]: 10%
- % PHAKPA (F129L) Disease level P6 at 16 ppm [4]: 0%

Compound: CO/C=C(/C(=O)OC)c1cccc(Cl)c1CO/N=C(\COC)c1cccc(F)c1F [compound 87]
- % PUCCRT Disease level K4 at 4 ppm [1]: 67%
- % PUCCRT Disease level K4 at 16 ppm [1]: 10%
- % PUCCRT Disease level P7 at 4 ppm [2]: 28%
- % PUCCRT Disease level P7 at 16 ppm [2]: 5%
- % PHAKPA (F129L) Disease level P2 at 4 ppm [3]: 5%
- % PHAKPA (F129L) Disease level P2 at 16 ppm [3]: 0%
- % PHAKPA (F129L) Disease level P6 at 4 ppm [4]: 2%
- % PHAKPA (F129L) Disease level P6 at 16 ppm [4]: 0%

Compound: CO/C=C(/C(=O)OC)c1cccc(Cl)c1CO/N=C(\COC)c1ccc(F)c(F)c1 [compound 92]
- % PUCCRT Disease level K4 at 4 ppm [1]: 6%
- % PUCCRT Disease level K4 at 16 ppm [1]: 0%
- % PUCCRT Disease level P7 at 4 ppm [2]: 3%
- % PUCCRT Disease level P7 at 16 ppm [2]: 3%
- % PHAKPA (F129L) Disease level P2 at 4 ppm [3]: 0%
- % PHAKPA (F129L) Disease level P2 at 16 ppm [3]: 0%
- % PHAKPA (F129L) Disease level P6 at 4 ppm [4]: 12%
- % PHAKPA (F129L) Disease level P6 at 16 ppm [4]: 0%

Compound: CO/C=C(/C(=O)OC)c1cccc(Cl)c1CO/N=C(\COC)c1ccc(F)cc1Cl [compound 93]
- % PUCCRT Disease level K4 at 4 ppm [1]: 83%
- % PUCCRT Disease level K4 at 16 ppm [1]: 19%
- % PUCCRT Disease level P7 at 4 ppm [2]: 53%
- % PUCCRT Disease level P7 at 16 ppm [2]: 16%
- % PHAKPA (F129L) Disease level P2 at 4 ppm [3]: 13%
- % PHAKPA (F129L) Disease level P2 at 16 ppm [3]: 1%
- % PHAKPA (F129L) Disease level P6 at 4 ppm [4]: 43%
- % PHAKPA (F129L) Disease level P6 at 16 ppm [4]: 15%

Compound: CNC(=O)/C(=N/OC)c1cccc(Cl)c1CO/N=C(\COC)c1ccc(F)c(F)c1 [compound 97]
- % PUCCRT Disease level K4 at 4 ppm [1]: 9%
- % PUCCRT Disease level K4 at 16 ppm [1]: 3%
- % PUCCRT Disease level P7 at 4 ppm [2]: 23%
- % PUCCRT Disease level P7 at 16 ppm [2]: 4%
- % PHAKPA (F129L) Disease level P2 at 4 ppm [3]: 3%
- % PHAKPA (F129L) Disease level P2 at 16 ppm [3]: 0%
- % PHAKPA (F129L) Disease level P6 at 4 ppm [4]: 17%
- % PHAKPA (F129L) Disease level P6 at 16 ppm [4]: 1%

Compound: CNC(=O)/C(=N/OC)c1cccc(Cl)c1CO/N=C(\COC)c1cccc(Cl)c1F [compound 99]
- % PUCCRT Disease level K4 at 4 ppm [1]: 82%
- % PUCCRT Disease level K4 at 16 ppm [1]: 10%
- % PUCCRT Disease level P7 at 4 ppm [2]: 42%
- % PUCCRT Disease level P7 at 16 ppm [2]: 7%
- % PHAKPA (F129L) Disease level P2 at 4 ppm [3]: 21%
- % PHAKPA (F129L) Disease level P2 at 16 ppm [3]: 1%
- % PHAKPA (F129L) Disease level P6 at 4 ppm [4]: 17%
- % PHAKPA (F129L) Disease level P6 at 16 ppm [4]: 2%

Compound: CNC(=O)/C(=N/OC)c1cccc(Cl)c1CO/N=C(\COC)c1ccc(Cl)cc1F [compound 100]
- % PUCCRT Disease level K4 at 4 ppm [1]: 78%
- % PUCCRT Disease level K4 at 16 ppm [1]: 6%
- % PUCCRT Disease level P7 at 4 ppm [2]: 12%
- % PUCCRT Disease level P7 at 16 ppm [2]: 4%
- % PHAKPA (F129L) Disease level P2 at 4 ppm [3]: 24%
- % PHAKPA (F129L) Disease level P2 at 16 ppm [3]: 2%
- % PHAKPA (F129L) Disease level P6 at 4 ppm [4]: 20%
- % PHAKPA (F129L) Disease level P6 at 16 ppm [4]: 3%

Compound: CO/C=C(/C(=O)OC)c1cccc(Cl)c1CO/N=C(\COC)c1ccc(F)c(F)c1F [compound 101]
- % PUCCRT Disease level K4 at 4 ppm [1]: 35%
- % PUCCRT Disease level K4 at 16 ppm [1]: 3%
- % PUCCRT Disease level P7 at 4 ppm [2]: 54%
- % PUCCRT Disease level P7 at 16 ppm [2]: 3%
- % PHAKPA (F129L) Disease level P2 at 4 ppm [3]: 2%
- % PHAKPA (F129L) Disease level P2 at 16 ppm [3]: 0%
- % PHAKPA (F129L) Disease level P6 at 4 ppm [4]: 6%
- % PHAKPA (F129L) Disease level P6 at 16 ppm [4]: 0%

Compound: CNC(=O)/C(=N/OC)c1cccc(Cl)c1CO/N=C(\COC)c1c(F)cc(Cl)cc1F [compound 102]
- % PUCCRT Disease level K4 at 4 ppm [1]: 80%
- % PUCCRT Disease level K4 at 16 ppm [1]: 36%
- % PUCCRT Disease level P7 at 4 ppm [2]: 32%
- % PUCCRT Disease level P7 at 16 ppm [2]: 6%
- % PHAKPA (F129L) Disease level P2 at 4 ppm [3]: 21%
- % PHAKPA (F129L) Disease level P2 at 16 ppm [3]: 1%
- % PHAKPA (F129L) Disease level P6 at 4 ppm [4]: 16%
- % PHAKPA (F129L) Disease level P6 at 16 ppm [4]: 2%

Compound: CO/C=C(/C(=O)OC)c1cccc(Cl)c1CO/N=C(\COC)c1cc(Cl)ccc1F [compound 105]
- % PUCCRT Disease level K4 at 4 ppm [1]: 42%
- % PUCCRT Disease level K4 at 16 ppm [1]: 5%
- % PUCCRT Disease level P7 at 4 ppm [2]: 44%
- % PUCCRT Disease level P7 at 16 ppm [2]: 4%
- % PHAKPA (F129L) Disease level P2 at 4 ppm [3]: 18%
- % PHAKPA (F129L) Disease level P2 at 16 ppm [3]: 2%
- % PHAKPA (F129L) Disease level P6 at 4 ppm [4]: 13%
- % PHAKPA (F129L) Disease level P6 at 16 ppm [4]: 0%

Compound: CO/C=C(/C(=O)OC)c1cccc(Cl)c1CO/N=C(\COC)c1ccc(Cl)cc1F [compound 106]
- % PUCCRT Disease level K4 at 4 ppm [1]: 28%
- % PUCCRT Disease level K4 at 16 ppm [1]: 4%
- % PUCCRT Disease level P7 at 4 ppm [2]: 19%
- % PUCCRT Disease level P7 at 16 ppm [2]: 2%
- % PHAKPA (F129L) Disease level P2 at 4 ppm [3]: 14%
- % PHAKPA (F129L) Disease level P2 at 16 ppm [3]: 1%
- % PHAKPA (F129L) Disease level P6 at 4 ppm [4]: 8%
- % PHAKPA (F129L) Disease level P6 at 16 ppm [4]: 1%

Compound: CNC(=O)/C(=N/OC)c1cccc(Cl)c1CO/N=C(\COC)c1cc(Cl)ccc1F [compound 107]
- % PUCCRT Disease level K4 at 4 ppm [1]: 80%
- % PUCCRT Disease level K4 at 16 ppm [1]: 9%
- % PUCCRT Disease level P7 at 4 ppm [2]: 41%
- % PUCCRT Disease level P7 at 16 ppm [2]: 7%
- % PHAKPA (F129L) Disease level P2 at 4 ppm [3]: 29%
- % PHAKPA (F129L) Disease level P2 at 16 ppm [3]: 3%
- % PHAKPA (F129L) Disease level P6 at 4 ppm [4]: 19%
- % PHAKPA (F129L) Disease level P6 at 16 ppm [4]: 3%

Source: patent US20260165323A1, “USE OF STROBILURIN TYPE COMPOUNDS FOR COMBATING PHYTOPATHOGENIC FUNGI CONTAINING AN AMINO ACID SUBSTITUTION F129L IN THE MITOCHONDRIAL CYTOCHROME B PROTEIN CONFERRING RESISTANCE TO QO […]” (priority 2022, published 2026)
